Source: ChEMBL document CHEMBL6114980, “Single or double lipid-modified ultra-short antimicrobial peptides for treating infections caused by resistant bacteria” (Eur J Med Chem, 2025)
Values after ≈ are worked out from the molar mass of the structure shown. Active and inactive are the calls of the source. The rule behind the calls is not given here. Peptide text beside a SMILES is read from it. * marks the point of attachment. Decanoyl = CCCCCCCCCC(=O)*; Hexanoyl = CCCCCC(=O)*; Butyryl = CCCC(=O)*

What was measured:
Cell membrane = experiment: Induction of inner membrane permeabilization in Escherichia coli at 0.5 to 1 times MIC measured for 135 mins by absorbance based analysis
Acinetobacter baumannii = experiment: Antibacterial activity against Acinetobacter baumannii ATCC 19606 assessed as reduction in bacterial growth incubated for 18 to 24 hrs by broth microdilution method; type: functional; settings: time 18-24 hrs
Klebsiella pneumoniae = experiment: Antibacterial activity against Klebsiella pneumoniae ATCC 700603 assessed as reduction in bacterial growth incubated for 18 to 24 hrs by broth microdilution method; type: functional; settings: time 18-24 hrs
Escherichia coli = experiment: Antibacterial activity against Escherichia coli ATCC 25922 assessed as reduction in bacterial growth incubated for 18 to 24 hrs by broth microdilution method; type: functional; settings: time 18-24 hrs
Pseudomonas aeruginosa = experiment: Antibacterial activity against Pseudomonas aeruginosa ATCC 27853 assessed as reduction in bacterial growth incubated for 18 to 24 hrs by broth microdilution method; type: functional; settings: time 18-24 hrs
Enterococcus faecalis = experiment: Antibacterial activity against Enterococcus faecalis ATCC 29212 assessed as reduction in bacterial growth incubated for 18 to 24 hrs by broth microdilution method; type: functional; settings: time 18-24 hrs
[1] = test system: Staphylococcus epidermidis; experiment: Antibacterial activity against Staphylococcus epidermidis ATCC 12228 assessed as reduction in bacterial growth incubated for 18 to 24 hrs by broth microdilution method; type: functional; settings: time 18-24 hrs
Bacillus subtilis = experiment: Antibacterial activity against Bacillus subtilis ATCC 23857 assessed as reduction in bacterial growth incubated for 18 to 24 hrs by broth microdilution method; type: functional; settings: time 18-24 hrs
Staphylococcus aureus = experiment: Antibacterial activity against Staphylococcus aureus ATCC 25923 assessed as reduction in bacterial growth incubated for 18 to 24 hrs by broth microdilution method; type: functional; settings: time 18-24 hrs

Row | Compound | Activity (Cell membrane) | MIC (Acinetobacter baumannii) [µM] | MIC (Klebsiella pneumoniae) [µM] | MIC (Escherichia coli) [µM] | MIC (Pseudomonas aeruginosa) [µM] | MIC (Enterococcus faecalis) [µM] | MIC [1] [µM] | MIC (Bacillus subtilis) [µM] | MIC (Staphylococcus aureus) [µM]
1 | CC(C)(C)CC(C)(C)c1ccc(OCCO)cc1 | Active |  |  |  |  |  |  |  | 
2 | CCCC(=O)N[C@@H](CCCCN)C(=O)N[C@@H](CCCCN)C(=O)N[C@@H](Cc1c[nH]c2ccccc12)C(=O)N[C@@H](Cc1c[nH]c2ccccc12)C(N)=O (Butyryl-KKWW-NH2) |  | 128 (≈ 91.6 µg/mL) | 128 (≈ 91.6 µg/mL) | 128 (≈ 91.6 µg/mL) | 128 (≈ 91.6 µg/mL) | 128 (≈ 91.6 µg/mL) | 128 (≈ 91.6 µg/mL) | 128 (≈ 91.6 µg/mL) | 128 (≈ 91.6 µg/mL)
3 | CCCCCC(=O)NCCCC[C@H](NC(=O)CCCCC)C(=O)N[C@@H](CCCCN)C(=O)N[C@@H](CCCCN)C(=O)N[C@@H](Cc1c[nH]c2ccccc12)C(=O)N[C@@H](Cc1c[nH]c2ccccc12)C(N)=O (Hexanoyl-K(Hexanoyl)KKWW-NH2) |  | 128 (≈ 124 µg/mL) | 128 (≈ 124 µg/mL) | 128 (≈ 124 µg/mL) | 64 (≈ 62.1 µg/mL) | 128 (≈ 124 µg/mL) | 128 (≈ 124 µg/mL) | 64 (≈ 62.1 µg/mL) | 128 (≈ 124 µg/mL)
4 | CCCCCC(=O)N[C@@H](CCCCN)C(=O)N[C@@H](CCCCN)C(=O)N[C@@H](Cc1c[nH]c2ccccc12)C(=O)N[C@@H](Cc1c[nH]c2ccccc12)C(N)=O (Hexanoyl-KKWW-NH2) |  | 128 (≈ 95.2 µg/mL) | 128 (≈ 95.2 µg/mL) | 128 (≈ 95.2 µg/mL) | 128 (≈ 95.2 µg/mL) | 128 (≈ 95.2 µg/mL) | 128 (≈ 95.2 µg/mL) | 128 (≈ 95.2 µg/mL) | 128 (≈ 95.2 µg/mL)

Continued, values first:

Row | Activity (Cell membrane) | MIC (Acinetobacter baumannii) [µM] | MIC (Klebsiella pneumoniae) [µM] | MIC (Escherichia coli) [µM] | MIC (Pseudomonas aeruginosa) [µM] | MIC (Enterococcus faecalis) [µM] | MIC [1] [µM] | MIC (Bacillus subtilis) [µM] | MIC (Staphylococcus aureus) [µM] | Compound
5 |  | 128 (≈ 117 µg/mL) | 128 (≈ 117 µg/mL) | 128 (≈ 117 µg/mL) | 128 (≈ 117 µg/mL) | 128 (≈ 117 µg/mL) | 128 (≈ 117 µg/mL) | 128 (≈ 117 µg/mL) | 128 (≈ 117 µg/mL) | CCCC(=O)NCCCC[C@H](NC(=O)CCC)C(=O)N[C@@H](CCCCN)C(=O)N[C@@H](CCCCN)C(=O)N[C@@H](Cc1c[nH]c2ccccc12)C(=O)N[C@@H](Cc1c[nH]c2ccccc12)C(N)=O (Butyryl-K(Butyryl)KKWW-NH2)
6 |  | 16 (≈ 17.3 µg/mL) | 128 (≈ 139 µg/mL) | 16 (≈ 17.3 µg/mL) | 16 (≈ 17.3 µg/mL) | 16 (≈ 17.3 µg/mL) | 8 (≈ 8.66 µg/mL) | 8 (≈ 8.66 µg/mL) | 16 (≈ 17.3 µg/mL) | CCCCCCCCCC(=O)NCCCC[C@H](NC(=O)CCCCCCCCC)C(=O)N[C@@H](CCCCN)C(=O)N[C@@H](CCCCN)C(=O)N[C@@H](Cc1c[nH]c2ccccc12)C(=O)N[C@@H](Cc1c[nH]c2ccccc12)C(N)=O (Decanoyl-K(Decanoyl)KKWW-NH2)
7 |  | 32 (≈ 25.6 µg/mL) | 32 (≈ 25.6 µg/mL) | 16 (≈ 12.8 µg/mL) | 8 (≈ 6.4 µg/mL) | 32 (≈ 25.6 µg/mL) | 16 (≈ 12.8 µg/mL) | 4 (≈ 3.2 µg/mL) | 16 (≈ 12.8 µg/mL) | CCCCCCCCCC(=O)N[C@@H](CCCCN)C(=O)N[C@@H](CCCCN)C(=O)N[C@@H](Cc1c[nH]c2ccccc12)C(=O)N[C@@H](Cc1c[nH]c2ccccc12)C(N)=O (Decanoyl-KKWW-NH2)
